Assay results taken from paper PMC10791743, “Selective CK1α degraders exert antiproliferative activity against a broad range of human cancer cell lines” (Nature Communications, 2024).

Experiment: Metabolic stability in cryopreserved hepatocytes, mouse
Format: in vitro ADME
Settings: mouse, cryopreserved hepatocytes; read-out: Hepatocyte stability t1/2
Procedure: page 34: UHPLC-MS/MS System: Chromatographic separation was performed on an Acquity UPLC BEH […] with 6500+ Qtrap system. […] software suite. The UPLC column was maintained at 55 °C. Mobile phase A was 0.1% formic acid in MilliQ H2O and Mobile phase B was 0.1% formic acid in acetonitrile. The flow rate was 0.9 […] The mass spectrometer was operated in positive-ion mode with electrospray ionization. MRM transition m/z […] plasma stability and plasma protein binding. The following MS parameters were employed for analyte measurements: ion spray voltage 5 kV, temperature 550 °C, gas 1 and gas 2 were 60, entrance potential (EP): 10 V, declustering potential (DP): 50 V, collision energy (CE): 27 V, and collision cell exit potential (CXP): 16 V. Metabolic Stability in mouse and human cryopreserved hepatocytes. 10 mM test compounds were provided by Compound Sample Group. Diluted 10 mM test compounds and 30 mM positive control compounds (7-ethoxycoumarin) to 1 mM and 3 mM with DMSO in 96-well plates. Diluted 1 mM test compounds and 3 mM positive control compounds to 100 μM and 300 μM dosing solutions with ACN. Cryopreserved cells were thawed, isolated and suspended in Incubation Medium, then diluted with pre-warmed Incubation Medium to 0.5 × 10^6cells/mL. Added 198 μL of pre-warmed cell suspensions in 96 -well plates. Transferred 125 μL of stop solution (acetonitrile containing 200 ng/mL tolbutamide and 200 ng/mL labetalol as internal standards) in a set of pre- labeled 96-well plates. Spike d 2 μL dosing solution to each well of 96 -well plates in duplicates. For T0 Samples, mix ed to achieve a homogenous suspension for about 1 min, then immediately transferred 25 μL of each sample into well containing 125 μL of ice -cold stop solution followed by mixing. Incubated all plates at 37°C in a 95% humidified incubator at 5% CO 2 to start the reactions page 35: with constant shaking at about 600 rpm. At 15, 30, 60 and 90 min, mixed samples and then transferred 25 μL of each sample at each time point to well containing 125 μL of ice -cold stop solution followed by mixing. Medium Control (MC) sample plates (labeled as T0-MC and T90- MC) were prepared at T0 and T90 by adding the same components to each well except cell suspensions. At each corresponding time point, stopped the reactions by removing the plates from incubator and mixing with 125 μL of ice-cold stop solution. Vortexed the plates immediately on a plate shaker at 500 rpm for 10 minutes. Then, centrifuge d all sample plates at 3220 x g for 20 min at 4°C. After centrifugation, 80 μL/well of supernatant in the sample plates were transferred to another set of pre-labeled 96-well plates which containing 240 μL of ultra pure water according to the plate map. Analytical plates were sealed and stored at 4°C until LC-MS/MS analysis. Thawing Medium: Williams' Medium E containing 5% fetal bovine serum and 30% Perc oll solution and other supplements. Incubation Medium: Williams' Medium E (no phenol red) containing 2 mM L-Glutamine and 25 mM HEPES. Stop Solution: Acetonitrile containing 200 ng/mL tolbutamide and labetalol as internal standards. Dilution Solution: Ultra-pure water. The remaining percents of test articles after incubation were calculated by the follow equations: Equation ( 6): Use equation of first order kinetics [NT] […] The data was […] concatenated with a reversed decoy database for evaluating False Discovery Rate (FDR). […]

## O=C1CCC(N2Cc3cc(Nc4noc5ccccc45)ccc3C2=O)C(=O)N1 (stereo not shown) [SJ3149]
  half-life at 1 µM: > 3.6 h
